Measured values published in US20050032124A1, “Identification of genotype-selective agents for treating Huntington's disease” (priority 2003, published 2005).

Tests used:
Assay type in all cases: cell-based, human
[1] = test system: BJ-TERT/LT/ST/RAS^V12 tumorigenic cells; experiment: Calcein AM viability assay, dilution-series retest
Method: Described here is work carried out to identify compounds with increased potency or activity in the presence of hTERT, LT, ST, E6, E7 or RAS^V12. […] The primary screen tested (in quadruplicate) the effect of treating tumorigenic BJ-TERT/LT/ST/RAS^V12 engineered tumorigenic cells with each compound for 48 hours at a concentration of 4 μg/mL, corresponding to 10 μM for a compound with a molecular weight of 400, which is the approximate median molecular weight of the libraries. Cell viability was measured using the dye calcein acetoxymethyl ester (calcein AM) (Wang et al., 1993, Hum. Immunol. 3 7, 264-270), which is a non-fluorescent compound that freely diffuses into cells. In live cells, calcein AM is cleaved by intracellular esterases, forming the anionic fluorescent derivative calcein, which cannot diffuse out of live cells. […] The IC50 value (concentration required to inhibit 50% of the calcein AM signal) was calculated for each compound in each cell line (Table 1).
(§1) Calcein acetoxylmethyl ester (AM) is a cell membrane-permeable, non-fluorescent compound that is cleaved by intracellular esterases to form the anionic, cell-impermeable, fluorescent compound calcein. Viable cells are stained by calcein because of the presence of intracellular esterases and because the intact plasma membrane prevents fluorescent calcein from leaking out of cells (Wang et al., 1993, supra). Cells were seeded in 384-well plates using a Zymark Sciclone ALH, treated with each compound in triplicate at 4 μg/mL in the primary screen for two days, washed with phosphate-buffered saline on a Packard Minitrak with a 384-well washer and incubated for four hours with 0.7 μg/mL calcein (Molecular Probes). Total fluorescence intensity in each well was recorded on a Packard Fusion platereader, and converted to a percent inhibition of signal by subtracting the instrument background and dividing by the average signal obtained when cells were not treated with any compound.
(§2) Replica daughter plates were prepared with a Zymark Sciclone ALH and integrated Twister II by diluting stock plates 50 fold in medium lacking serum and pen/strep to obtain a compound concentration in daughter plates of 80 μg/ml with 2% DMSO. Assay plates were prepared by seeding cells in black, clear bottom 384-well plates in columns 1-23 (6000 cells/well in 57 μl) using a syringe bulk dispenser. Columns 3-22 were treated with compounds from a daughter library plate by transferring 3 μl from the daughter library plate using 384-position fixed cannula array. The final compound concentrations in assay plates were thus 4 μg/ml. The assay plates were incubated for 48 hours at 37° C. in humidified incubator containing 5% CO2. Plate processing for the calcein AM viability assay was performed using an integrated Minitrak/Sidetrak robotic system from Packard Bioscience (Perkin Elmer). Assay plates were washed with phosphate buffered saline, and 20 μl of calcein AM (0.7 μg/ml) per well was added. Plates were incubated at room temperature for 4 hours. Fluorescence intensity was determined using a Fusion platereader with filters centered on an excitation of 485 nm and an emission of 535 nm.
(§3) Compounds to be retested were purchased from manufacturers. Stocks were prepared in DMSO at a concentration of 1 mg/ml in 384-well polypropylene plates with a 16-point, two-fold dilution dose curve of each compound in a column, in duplicates. Column 1-2 and 23-24 were left empty for controls. Daughter retest plates were prepared from stock retest plate by diluting 66.6 fold in DMEM in 384-well deep-deep well plates (4.5 μl transfer into 300 μl). Cells were seeded at a density of 6000 per well in 40 μl, and 20 μl was added from a daughter retest plate. The plates were incubated for two days at 37° C. with 5% CO2.

[2] = test system: TIP5/TERT/LT/ST/RAS^V12 cells; experiment: Calcein AM viability assay, dilution-series retest; details: TIP5 TERT/LT/ST/Ras^V12 cells; 16-point two-fold dilution; two days
Description: (§4) In a third series, cell lines derived from independently prepared human TIP5 foreskin fibroblasts created by introducing cDNA constructs encoding hTERT, LT, ST and RASV12 (Lessnick et al., 2002, Cancer Cell 1, 393-401) were used. These cell lines were called, respectively: TIP5/TERT, TIP5/TERT/LT, TIP5/TERT/LT/ST, and TIP5/TERT/LT/ST/RAS^V12. In a fourth series, cell lines derived from TIP5 fibroblasts created by introducing cDNA constructs encoding hTERT, E6, E7, ST and RAS^V12 were used. These cell lines were named, respectively: TIP5/TERT/E6, TIP5/TERT/E6/E7, TIP5/TERT/E6/E7/ST, and TIP5/TERT/E6/E7/ST/RAS^V12. In this series, HPV E6 and E7, which inactivate p53 and RB, respectively, serve a similar function as LT in the previous series. However, by using HPV E6 and E7, Applicants were able to observe the effects of inactivating, separately and independently, p53 and RB. Results of a large-scale screen for compounds that display selective killing of these engineered tumorigenic cell lines are described in the examples that follow.
as §1, §2, §3
(§5) Mean RFU (relative fluorescence units) for untreated cells was calculated by averaging columns 1, 2, and 23 (wells with cells but lacking compounds). […]

[3] = test system: TIP5/TERT/E6/E7/ST/RAS^V12 cells; experiment: Calcein AM viability assay, dilution-series retest; details: TIP5-TERT/E6E7/ST/Ras^V12 cells; 16-point two-fold dilution; two days
Description: as §4, §1, §2, §3, §5

[4] = test system: TIP5/TERT/E6/E7/ST cells; experiment: Calcein AM viability assay, dilution-series retest; details: TIP5-TERT/E6E7/ST cells; 16-point two-fold dilution; two days
Description: as §4, §1, §2, §3, §5

[5] = test system: TIP5/TERT/LT cells; experiment: Calcein AM viability assay, dilution-series retest; details: TIP5 TERT/LT cells; 16-point two-fold dilution; two days
Description: as §4, §1, §2, §3, §5

[6] = test system: TIP5/TERT/E6/E7 cells; experiment: Calcein AM viability assay, dilution-series retest; details: TIP5-TERT/E6E7 cells; 16-point two-fold dilution; two days
Description: as §4, §1, §2, §3, §5

[7] = test system: TIP5/TERT cells; experiment: Calcein AM viability assay, dilution-series retest; details: TIP5-TERT cells; 16-point two-fold dilution; two days
Description: as §4, §1, §2, §3, §5

[8] = test system: BJ-TERT/LT/ST cells; experiment: Calcein AM viability assay, dilution-series retest; details: BJ-TERT/LT/ST cells; 16-point two-fold dilution; two days
Description: (§6) Described here is work carried out to identify compounds with increased potency or activity in the presence of hTERT, LT, ST, E6, E7 or RAS^V12. Engineered cell lines with these genetic elements were used to screen […] compounds, including 20,000 compounds from a combinatorial library, 1,990 compounds from the National Cancer Institute diversity collection, and 1,540 biologically active known compounds that were selected and purchased by Applicant and formatted into a screenable collection. The primary screen tested (in quadruplicate) the effect of treating tumorigenic BJ-TERT/LT/ST/RAS^V12 engineered tumorigenic cells with each compound for 48 hours at a concentration of 4 μg/mL, corresponding to 10 μM for a compound with a molecular weight of 400, which is the approximate median molecular weight of the libraries. Cell viability was measured using the dye calcein acetoxymethyl ester (calcein AM) (Wang et al., 1993, Hum. Immunol. 3 7, 264-270), which is a non-fluorescent compound that freely diffuses into cells. In live cells, calcein AM is cleaved by intracellular esterases, forming the anionic fluorescent derivative calcein, which cannot diffuse out of live cells. […] The IC50 value (concentration required to inhibit 50% of the calcein AM signal) was calculated for each compound in each cell line (Table 1). […] Following is a more detailed analysis of these nine compounds.
as §1, §2
(§7) Compounds to be retested were purchased from manufacturers. Stocks were prepared in DMSO at a concentration of 1 mg/ml in 384-well polypropylene plates with a 16-point, two-fold dilution dose curve of each compound in a column, in duplicates. Column 1-2 and 23-24 were left empty for controls. […]

[9] = test system: BJ primary cells; experiment: Calcein AM viability assay, dilution-series retest; details: BJ cells; 16-point two-fold dilution; two days
Description: as §6, §1, §2, §7

[10] = test system: BJ-TERT/LT/RAS^V12/ST cells; experiment: Calcein AM viability assay, dilution-series retest; details: BJ-TERT/LT/Ras^V12/ST cells; 16-point two-fold dilution; two days
Description: as §6, §1, §2, §7

[11] = test system: BJ primary cells; experiment: Sensitization of primary cells by co-treatment, calcein AM viability staining; details: BJ (or BJ-TERT) cells; simultaneous treatment
Description: (A-C) Western blot of lysates from BJ, BJ-TERT, BJ-TERT/LT/ST, BJ-TERT/LT/ST/RAS^V12, BJ-TERT/LT/RAS^V12 and BJ-TERT/LT/RAS^V12/ST cells with an antibody directed against topoisomerase II (A) or TOPI (B, C). In panel (C), cells were transfected with an siRNA directed against TOPI, lamic A/C or with a control double strand DNA duplex of the same length (TOPI dsDNA). In each case, the blot was probed with an antibody against eIF-4E to identify differences in the amount of protein loaded. The relative amount is quantitated below each band. […] Cell number was determined after transfection with an siRNA directed against TOPI and treatment with the indicated concentrations of camptothecin. (E) Okadaic acid, an inhibitor of PP2A and other cellular phosphatases, sensitizes primary human cells to camptothecin. BJ primary cells were treated simultaneously with the indicated concentrations of both camptothecin and okadaic acid and the effect on calcein AM viability staining was determined. […] BJ primary cells were treated with the indicated concentrations of okadaic acid and the expression level of TOPI was determined by western blot. The relative amount is quantitated below each band.
The compounds in group (iii) are camptothecin (CPT) and a novel compound from a combinatorial library, which Applicants have named erastin, for eradicator of RAS and ST-expressing cells (FIG. 2). Efficient CPT-induced and erastin-induced cell death requires the presence of both ST and RAS^V12 (FIGS. 3 and 4 and Table 1). Although CPT and erastin have a similar genetic basis of selectivity, they have distinct mechanisms of action. […] The phosphatase inhibitor okadaic acid was capable of sensitizing otherwise resistant BJ primary cells to CPT (FIG. 5E), possibly because okadaic acid upregulates TOPI (FIG. 5F).

| Compound | IC50, BJ-TERT/LT/ST/Ras^V12 ([1]; BJ-TERT/LT/ST/Ras^V12 cells, 16-point two-fold dilution, two days) [µg/mL] | Tumor Selectivity ([1]; IC50 in primary BJ cells divided by IC50 in BJ-TERT/LT/ST/RAS^V12 tumorigenic cells) | IC50, TIP5 TERT/LT/ST/Ras^V12 [2] [µg/mL] | IC50, TIP5-TERT/E6E7 ST/Ras^V12 [3] [µg/mL] | IC50, TIP5-TERT/E6E7 ST [4] [µg/mL] | IC50, TIP5 TERT/LT [5] [µg/mL] | IC50, TIP5-TERT/E6E7 [6] [µg/mL] | IC50, TIP5-TERT [7] [µg/mL] | IC50, BJ-TERT/LT/ST [8] [µg/mL] | concentration required to achieve 50% inhibition of calcein AM staining (IC50), BJ [9] [µg/mL] | IC50, BJ-TERT/LT/Ras^V12/ST [10] [µg/mL] | sensitization of cells to camptothecin [11] |
| --- | --- | --- | --- | --- | --- | --- | --- | --- | --- | --- | --- | --- |
| Cc1c2ccccc2c(CSC(=N)N)c2ccccc12.Cl [NSC146109] | 2.5 | >4 | 2.5 | 2.5 | 2.5 | >5 | 2.5 | >5 | 2.5 | >5 | 2.5 |  |
| COc1cc([C@@H]2c3cc4c(cc3[C@H](O)[C@H]3COC(=O)[C@H]23)OCO4)cc(OC)c1OC [podophyllotoxin] |  |  |  |  |  |  |  |  |  |  |  | does not sensitize BJ or BJ-TERT cells to CPT |
